According to PubChem BioAssay (NCI):
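Each compound was tested at five concentrations against cells in 96-well plates for 48 hours. At the TGI there is no net growth.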

Assays:
Experiment in all cases: DTP human tumour cell line panel, 48 h
M14 melanoma = tested on: M14 melanoma
SK-MEL-5 melanoma = tested on: SK-MEL-5 melanoma
DMS 114 small cell lung = tested on: DMS 114 small cell lung
SF-539 CNS = tested on: SF-539 CNS
SNB-78 CNS = tested on: SNB-78 CNS
ACHN renal = tested on: ACHN renal
HCT-116 colon = tested on: HCT-116 colon
NCI-H23 lung = tested on: NCI-H23 lung
SNB-19 CNS = tested on: SNB-19 CNS
NCI-H522 lung = tested on: NCI-H522 lung
K-562 leukemia = tested on: K-562 leukemia
MOLT-4 leukemia = tested on: MOLT-4 leukemia
CCRF-CEM leukemia = tested on: CCRF-CEM leukemia
HT29 colon = tested on: HT29 colon
SK-MEL-28 melanoma = tested on: SK-MEL-28 melanoma
OVCAR-8 ovarian = tested on: OVCAR-8 ovarian
HOP-18 NSCLC = tested on: HOP-18 NSCLC
COLO 205 colon = tested on: COLO 205 colon
RPMI-8226 leukemia = tested on: RPMI-8226 leukemia
HOP-92 NSCLC = tested on: HOP-92 NSCLC

## O=C1NP23(OCCO2)Oc2ccccc2C3(C(F)(F)F)O1 (stereo unspecified)
M14 melanoma
  TGI: > 100 µM
SK-MEL-5 melanoma
  TGI: > 100 µM
DMS 114 small cell lung
  TGI: > 100 µM
SF-539 CNS
  TGI: > 100 µM
SNB-78 CNS
  TGI: > 100 µM
ACHN renal
  TGI: > 100 µM
HCT-116 colon
  TGI: > 100 µM
NCI-H23 lung
  TGI: > 100 µM
SNB-19 CNS
  TGI: > 100 µM
NCI-H522 lung
  TGI: > 100 µM
K-562 leukemia
  TGI: > 100 µM
MOLT-4 leukemia
  TGI: > 100 µM
CCRF-CEM leukemia
  TGI: > 100 µM
HT29 colon
  TGI: > 100 µM
SK-MEL-28 melanoma
  TGI: > 100 µM
OVCAR-8 ovarian
  TGI: > 100 µM
HOP-18 NSCLC
  TGI: > 100 µM

## COc1ccc(/C(Cl)=C(\C=O)c2ccc(OC)c(OC)c2)cc1
M14 melanoma
  TGI: > 100 µM
SK-MEL-5 melanoma
  TGI: > 100 µM
DMS 114 small cell lung
  TGI: > 100 µM
SF-539 CNS
  TGI: 58.5 µM
COLO 205 colon
  TGI: > 100 µM
SNB-78 CNS
  TGI: > 100 µM
ACHN renal
  TGI: > 100 µM
NCI-H23 lung
  TGI: > 100 µM
SNB-19 CNS
  TGI: > 100 µM
NCI-H522 lung
  TGI: 85.3 µM
K-562 leukemia
  TGI: > 100 µM
MOLT-4 leukemia
  TGI: > 100 µM
RPMI-8226 leukemia
  TGI: > 100 µM
CCRF-CEM leukemia
  TGI: > 100 µM
HT29 colon
  TGI: > 100 µM
HOP-92 NSCLC
  TGI: 53.4 µM
SK-MEL-28 melanoma
  TGI: > 100 µM
OVCAR-8 ovarian
  TGI: > 100 µM
HOP-18 NSCLC
  TGI: > 100 µM

## CC(=O)O/C(=C1\C[C@H]2[C@@H]3CC=C4C[C@@H](OC(C)=O)CC[C@]4(C)[C@H]3CC[C@]2(C)C1=O)C(F)(F)F
M14 melanoma
  TGI: 15.2 µM
SK-MEL-5 melanoma
  TGI: 14.4 µM
SF-539 CNS
  TGI: 15.2 µM
COLO 205 colon
  TGI: 25.7 µM
ACHN renal
  TGI: 48 µM
HCT-116 colon
  TGI: 18.8 µM
NCI-H23 lung
  TGI: 18.3 µM
SNB-19 CNS
  TGI: 40.6 µM
NCI-H522 lung
  TGI: 8.99 µM
K-562 leukemia
  TGI: 15.1 µM
MOLT-4 leukemia
  TGI: 7.37 µM
RPMI-8226 leukemia
  TGI: 15.8 µM
CCRF-CEM leukemia
  TGI: 13.9 µM
HT29 colon
  TGI: 29.2 µM
HOP-92 NSCLC
  TGI: 17.7 µM
SK-MEL-28 melanoma
  TGI: 31.9 µM
OVCAR-8 ovarian
  TGI: 16.8 µM

## COc1cc(N=Nc2cccc(S(=O)(=O)O)c2)ccc1N=Nc1ccc(/C=C/c2ccc(-n3on3-c3ccc(/C=C/c4ccc(N=Nc5ccc(N=Nc6cccc(S(=O)(=O)O)c6)cc5OC)cc4S(=O)(=O)O)c(S(=O)(=O)O)c3)cc2S(=O)(=O)O)c(S(=O)(=O)O)c1
SK-MEL-5 melanoma
  TGI: > 100 µM
DMS 114 small cell lung
  TGI: > 100 µM
SF-539 CNS
  TGI: > 100 µM
COLO 205 colon
  TGI: > 100 µM
SNB-78 CNS
  TGI: > 100 µM
HCT-116 colon
  TGI: > 100 µM
NCI-H23 lung
  TGI: > 100 µM
SNB-19 CNS
  TGI: > 100 µM
NCI-H522 lung
  TGI: > 100 µM
K-562 leukemia
  TGI: > 100 µM
MOLT-4 leukemia
  TGI: > 100 µM
RPMI-8226 leukemia
  TGI: > 100 µM
CCRF-CEM leukemia
  TGI: > 100 µM
HT29 colon
  TGI: > 100 µM
HOP-92 NSCLC
  TGI: > 100 µM
SK-MEL-28 melanoma
  TGI: > 100 µM
OVCAR-8 ovarian
  TGI: > 100 µM
HOP-18 NSCLC
  TGI: > 100 µM
